Assay results: patent US10987339B2, “Uses of butylidenephthalide” (EVERFRONT BIOTECH INC., priority 2015, dated 2021)

Experiments:
[1] = tested on: NHOKs (normal human oral keratinocytes); experiment: MTT assay, viability of NHOKs; assay type: cell-based; settings: 24 hours
Experimental: (§1) To investigate the effect of BP on inhibiting the growth of cancer stem cells, NHOKs (normal human oral keratinocytes) and HNC-TIC (head and neck cancer-derived tumor initiating cell)-like oral stem cells (i.e., ALDH1^+CD44^+-1 cell line or ALDH1^+CD44^+-2 cell line) were treated with different concentrations (0, 25, 50 and 100 μg/ml) of BP for 24 hours, and then, an MTT assay was utilized to analyzed the viabilities of NHOKs and HNC-TIC-like oral stem cells (i.e., ALDH1^+CD44^+-1 cell line and ALDH1^+CD44^+-2 cell line).

[2] = tested on: HNC-TIC-like oral stem cells (ALDH1+CD44+-1 cell line and ALDH1+CD44+-2 cell line); experiment: MTT assay, viability of HNC-TIC-like oral stem cells; assay type: cell-based; settings: ALDH1+CD44+-1 and ALDH1+CD44+-2 cell lines, 0, 25, 50 and 100 μg/ml BP, 24 hours, FIG. 1
Experimental: as §1

[3] = tested on: Sox-2; experiment: Western blotting, Sox-2 expression in MiaPaCa-2 cells; assay type: cell-based; settings: MiaPaCa-2 cells, 0, 12.5, 25 and 50 μg/ml BP, 24 hours, FIG. 2
Experimental: (§2) It has been known that CD44, CD133, Sox-2 (sex-determining region Y protein (SRY)-related high-mobility group box 2) and Oct4 (octamerbinding transcription factor 4) proteins all are stemness-maintenance markers of cancer stem cells and participate in the regulation of the self-renewal and differentiation of cancer stem cells. MiaPaCa-2 cell line (i.e., a cell line of pancreatic cancer cells) was treated with different concentrations (0, 12.5, 25, and 50 μg/ml) of BP for 24 hours, and then, proteins were extracted from the cells to conduct Western blotting to determine the expressions of Sox-2, CD133 and CD44 proteins in the BP-treated MiaPaCa-2 cells. Yet another. HNC-TIC-like oral stem cells (i.e., ALDH1^+CD44^+-1 cell line or ALDH1^+CD44^+-2 cell line) were treated with different concentrations (0, 12.5, 25, and 50 μg/ml) of BP for 24 hours, and then, proteins were extracted from the cells to conduct Western blotting to determine the expressions of Sox-2 and Oct4 proteins in the BP-treated HNC-TIC-like oral stem cells (i.e., ALDH1^+CD44^+-1 cell line and ALDH1^+CD44^+-2 cell line).

[4] = tested on: CD133; experiment: Western blotting, CD133 expression in MiaPaCa-2 cells; assay type: cell-based; settings: MiaPaCa-2 cells, 0, 12.5, 25 and 50 μg/ml BP, 24 hours, FIG. 2
Experimental: as §2

[5] = tested on: CD44; experiment: Western blotting, CD44 expression in MiaPaCa-2 cells; assay type: cell-based; settings: MiaPaCa-2 cells, 0, 12.5, 25 and 50 μg/ml BP, 24 hours, FIG. 2
Experimental: as §2

[6] = tested on: Sox-2; experiment: Western blotting, Sox-2 expression in HNC-TIC-like oral stem cells; assay type: cell-based; settings: ALDH1+CD44+-1 and ALDH1+CD44+-2 cell lines, 0, 12.5, 25 and 50 μg/ml BP, 24 hours, FIG. 3
Experimental: as §2

[7] = tested on: Oct4; experiment: Western blotting, Oct4 expression in HNC-TIC-like oral stem cells; assay type: cell-based; settings: ALDH1+CD44+-1 and ALDH1+CD44+-2 cell lines, 0, 12.5, 25 and 50 μg/ml BP, 24 hours, FIG. 3
Experimental: as §2

[8] = tested on: ALDH; experiment: ALDEFLUOR flow cytometry analysis of ALDH activity; assay type: cell-based; settings: group without DEAB addition, 0, 25 and 50 μg/ml BP, 24 hours, FIG. 4
Experimental: ALDH protein is also an important stemness-maintenance marker of cancer stem cells and participates in the regulation of the self-renewal and differentiation of cancer stem cells. HNC-TIC-like oral stem cells (i.e., ALDH1^+CD44^+-1 cell line or ALDH1^+CD44^+-2 cell line) were treated with different concentrations (0, 25 and 50 μg/ml) of BP for 24 hours, and then, 1×10^5 cells obtained from each group were separately suspended in 50 μl of a stem cell detection kit (i.e., ALDEEFLUOR array kit, purchased from […] Technologies Inc., Vancouver, Canada) buffer and the cell suspension of each group was separately added with ALDEFLUOR to a final concentration of 1 μM. Thereafter, a sample of each group was stained by […] and then analyzed by flow cytometry analysis to determine the ALDH activity of HNC-TIC-like oral stem cells (i.e., ALDH1^+CD44^+-1 cell line and ALDH1^+CD44^+-2 cell line).
The above experimental procedure was repeated, but the cell suspension of each group was further added with N,N-diethylaminobenzaldehyde (DEAB, i.e., an inhibitor of ALDH) to a final concentration of 150 μM of DEAB separately.

[9] = tested on: HNC-TIC-like oral stem cells (ALDH1+CD44+-1 cell line or ALDH1+CD44+-2 cell line); experiment: Transwell invasion assay; assay type: cell-based
Description: In this research, the effect of BP on inhibiting the migration and invasion of cancer stem cells was investigated by a transwell invasion assay system (i.e., Transwell® system, purchased from Corning, UK) with a polycarbonate filter membrane of 8-μm pore size (purchased from Corning, UK). First, the polycarbonate filter membrane was coated with Matrigel™ (purchased from BD Pharmingen, USA), and then, the coated membrane was placed in the […] of the transwell invasion assay system. Then, the lower chamber was filled with 10% serum-containing medium. On the other hand, HNC-TIC-like oral stem cells (i.e., ALDH1^+CD44^+-1 cell line or ALDH1^+CD44^+-2 cell line) were treated with different concentrations (0, 25 and 50 μg/ml) of BP for 24 hours, and then, the treated cells of each group was cultured in the upper chamber which was filled with serum-free medium, at a cell density of […] cells/100 μl for 24 hours. […] The invasion cancer cells of each group were counted and photographed over five visual fields of the membrane with the use of a 100-fold magnification under a microscope. The relative invasion ability of cells of each experimental group was calculated based on the result of the group treated with 0 μg/ml of BP.

[10] = tested on: HNC-TIC-like oral stem cells (ALDH1+CD44+-1 cell line or ALDH1+CD44+-2 cell line); experiment: Soft agar colony formation assay; assay type: cell-based
Experimental: In this research, a soft agar colony formation assay was used to investigate the effect of BP on inhibiting the tumor initiating activity of cancer stem cells. First, HNC-TIC-like oral stem cells (i.e., ALDH1^+CD44^+-1 cell line or ALDH1^+CD44^+-2 cell line) were treated with different concentrations (0, 25 and 50 μg/ml) of BP for 24 hours, and then, the treated cells of each group was separately seeded in the top agar [containing DMEM (Dulbecco's Modified Eagle's Medium medium), 10% (v/v) Fetal Calf Serum (FCS) and 0.3% (w/v) agar] (purchased from Sigma-Aldrich) at an initial cell number of 2×10^4. On the other hand, a six-well culture dish was coated with the bottom agar [containing DMEM, 10% (v/v) FCS and 0.6% (w/v) agar](purchased from Sigma-Aldrich), 2 ml for each well. After the bottom agar was solidified, each group of the top agar (containing oral cancer stem cells) was respectively added onto the bottom agar in different wells of the dish, 2 ml for each well. […] Lastly, the bottom agar was stained with 0.005% crystal violet, the number of colonies (with a diameter ≥100 μm) was counted over five fields per well with the use of a microscope, and those fields were photographed. The relative colony-forming ability of cells of each experimental group was calculated based on the result of the group treated with 0 μg/ml of BP.

[11] = tested on: HNC-TIC-like oral stem cells stably transfected with GFP-tagged constructs; experiment: Tumor initiating activity animal experiment (subcutaneous GFP-tagged HNC-TIC-like oral stem cells); assay type: in vivo, BALB/c nu/nu mice
Experimental: In this research, the effect of BP on inhibiting the tumor initiating activity of cancer stem cells was further investigated by animal experiments. First, 5-6 weeks old BALB/c nu/nu mice (weight 18-22 g) were bred under the same condition for 4 weeks. Then, HNC-TIC-like oral stem cells stably transfected with GFP-tagged constructs were injected (1×10^4 cells/0.1 mL/mouse) subcutaneously into the axilla of mice. After tumors reached 100 mm^3, mice were grouped into one control group and two experimental groups (three groups in total, n=3 per group). Then, one experimental group was injected daily with 100 mg/kg of BP for 6 days and another experimental group was injected daily with 200 mg/kg of BP for 6 days. The control group was injected daily with a vehicle (without BP) for 6 days. Ten days after the injection of BP or vehicle, the length and width were measured every 2 days (22 days in total), and then, the average tumor volume was calculated according to the following Formula 1. At the same time, the GFP signal (i.e., green fluorescence) of each group was detected and photographed by the IVIS Imaging system. The GFP intensity of each group was analyzed by Image-Pro Plus software. [length×width^2]/2 (unit: mm^3) Formula 1: […]

## CCCC=C1OC(=O)c2ccccc21 [BP, butylidenephthalide]
[1]; 0, 25, 50 and 100 μg/ml BP, MTT, FIG. 1
  viability of NHOKs: did not decrease along with the increment in the concentration of BP
[1]; NHOKs, up to 100 μg/ml BP
  cytotoxicity to normal cells: no cytotoxicity to normal cells
[2]
  viability of HNC-TIC-like oral stem cells: decreased along with the increment in the concentration of BP
[3]
  expression of Sox-2 protein: significantly decreased along with the increment in the concentration of BP
[4]
  expression of CD133 protein: significantly decreased along with the increment in the concentration of BP
[5]
  expression of CD44 protein: significantly decreased along with the increment in the concentration of BP
[6]
  expression of Sox-2 protein: significantly decreased along with the increment in the concentration of BP
[7]
  expression of Oct4 protein: significantly decreased along with the increment in the concentration of BP
[8]
  number of live cells with ALDH activity: increased along with the increment in the concentration of BP
[9]; 0, 25 and 50 μg/ml BP for 24 hours, then 24 hours transwell, FIG. 5A
  number of cells on the polycarbonate filter membrane: significantly reduced along with the increment in the concentration of BP
[9]; 0, 25 and 50 μg/ml BP, relative to 0 μg/ml group, FIG. 5B
  relative invasion ability: decreased along with the increment in the concentration of BP
[10]; 0, 25 and 50 μg/ml BP for 24 hours, 4 weeks culture, FIG. 6A
  number of colonies in the bottom agar: significantly decreased along with the increment in the concentration of BP
[10]; 0, 25 and 50 μg/ml BP, relative to 0 μg/ml group, FIG. 6B
  relative colony-forming ability: decreased along with the increment in the concentration of BP
[11]; 100 mg/kg and 200 mg/kg BP groups, daily for 6 days, compared to control group, FIG. 7B
  tumor volume: decreased over a period of time
[11]; 100 mg/kg and 200 mg/kg BP groups, daily for 6 days, compared to control group, FIG. 7C, 7D
  GFP intensity: significantly decreased
[11]; 100 mg/kg or 200 mg/kg BP injected daily for 6 days, FIG. 7A
  body weight of mice: didn't change significantly
